{"source": "patent EP0409176B1", "about": "“Method and materials for detecting pathology from alterations in estrogen metabolism” (THE ROCKEFELLER UNIVERSITY, priority 1989, dated 1991)", "key": {"2OHE1 antiserum": {"tested_on": "2OHE1 antiserum", "assay": "Radioimmunoassay cross-reactivity of the anti-2OHE1 antiserum", "type": "binding", "conditions": "antiserum raised against bovine serum albumin linked to 2-hydroxyestrone 17-carboxymethyloxime", "from_the_text": "Antibodies to 16α-OHE1, E2 and E3 were raised as described previously (Fishman, J., et al., SCIENCE, 204:1089-1091 (1979); Ikegawa, S., et al., J. STEROID BIOCHEM., 18:329-332 (1983)), while the anti-2OHE1 antiserum was a gift of Dr. Kanbegawa (Teikyo University, Japan) and was raised against bovine serum albumin linked to 2-hydroxyestrone 17-carboxymethyloxime. Cross-reactivities of the 2OHE1 antiserum with E1, E2 and E3, 16αOHE1, 2MeOE1, and 2-hydroxyestradiol (2OHE2) were 1.3%, 0.6%, 0.01%, 0.03%, 0.11% and 1.7%, respectively.\nEach urine sample (1 or 2 mL) contained approximately 3000 dpm of […] steroid used to determine recovery, and was applied to a C18 Sep-pak cartridge followed by elution with 5 mL of methanol. The eluate was dried in vacuo and hydrolyzed with Glusulase for 12 h at 37°C. The hydrolyzed steroids were again extracted on a C18 Sep-pak cartridge and eluted with 5 mL of methanol. Aliquots of this final eluate were taken for determination of recovery (averaging 90-95%) and duplicate radioimmunoassay (100 µL). In order to prevent auto-oxidation of catecholestrogens, ascorbic acid (1%) was used in all stages of the assay. Radiolabeled steroids and antisera were incubated with the specimens overnight at 4°C, and radioactivity was measured with a Packard model 3000 scintillation counter. Estrogen levels are expressed relative to urinary creatinine concentration. Statistical analysis was performed with an unpaired t-test. Unless otherwise specified, all values are reported as means ± SEM."}, "[1]": {"tested_on": "estradiol hydroxylation at both the C-2 and C-16α sites", "conditions": "cited from earlier work"}, "[2]": {"tested_on": "cytochrome P-450-dependent metabolism of estradiol", "conditions": "800 mg per dose twice daily oral for two weeks; nine normal male volunteers; P<0.04; cited from earlier work"}, "[3]": {"tested_on": "cytochrome P-450-dependent metabolism of estradiol", "conditions": "cited from earlier work"}, "[4]": {"tested_on": "16α-hydroxylation of estradiol", "conditions": "800 mg per dose twice daily oral for two weeks; nine normal male volunteers; radiometric analysis; cited from earlier work"}, "[5]": {"tested_on": "hepatic estradiol 2-hydroxylation", "assay": "Extent of estradiol 2-hydroxylation after indole-3-carbinol administration", "type": "in vivo", "conditions": "500 mg daily for one week, humans", "experimental": "(§1) In this study by two of the inventors herein, which study was just recently published, certain dietary indoles were examined for their induction of hepatic estradiol 2-hydroxylation. In particular, indole-3-carbinol (I3C) was administered to humans at a rate of 500 mg daily for one week."}, "[6]": {"tested_on": "estradiol 2-hydroxylation", "assay": "Urinary estrogen metabolites and ratios before and after I3C or high fiber diet", "type": "in vivo, humans", "experimental": "as §1\nIn conjunction with this study, certain comparative data were developed between the administration of I3C to women and men, and the administration of a high fiber diet to women. The comparative results are presented in Table 6A, B and C below, wherein Table 6A represents the data from women taking I3C, Table 6B represents the data respecting the women who were placed on a high fiber diet, and Table 6C represents the data gathered from the sample of men who were administered I3C."}, "[7]": {"conditions": "after thyroxine administration versus baseline"}}, "data": [{"smiles": "C[C@]12CC[C@@H]3c4ccc(O)cc4CC[C@H]3[C@@H]1C[C@@H](O)C2=O", "note": "[16αOHE1, 16α-hydroxyestrone]", "values": [{"measurement": "Cross-reactivities of the 2OHE1 antiserum", "setting": "2OHE1 antiserum", "value": 0.03, "unit": "%"}]}, {"smiles": "C[C@]12CC[C@@H]3c4ccc(O)cc4CC[C@H]3[C@@H]1C[C@@H](O)[C@@H]2O", "note": "[E3, estriol]", "values": [{"measurement": "Cross-reactivities of the 2OHE1 antiserum", "setting": "2OHE1 antiserum", "value": 0.01, "unit": "%"}]}, {"smiles": "N[C@@H](Cc1cc(I)c(Oc2cc(I)c(O)c(I)c2)c(I)c1)C(=O)O", "note": "[Thyroxine, thyroxine]", "values": [{"measurement": "Urinary 16αOHE1", "setting": "[1]; Post: following two weeks of thyroxine (4.3 mcg/kg/d), mean ± SEM, Pre 2.07 ± 0.24, NS", "value": "2.24 ± 0.17", "unit": "µg creatinine"}, {"measurement": "Urinary E2", "setting": "[1]; Post: following two weeks of thyroxine (4.3 mcg/kg/d), mean ± SEM, Pre 2.78 ± 0.23, NS", "value": "3.03 ± 0.27", "unit": "µg creatinine"}, {"measurement": "Urinary 2OHE1", "setting": "[1]; Post: following two weeks of thyroxine (4.3 mcg/kg/d), mean ± SEM, Pre 2.88 ± 0.32, P 0.01", "value": "5.30 ± 0.85", "unit": "µg creatinine"}, {"measurement": "Urinary E3", "setting": "[1]; Post: following two weeks of thyroxine (4.3 mcg/kg/d), mean ± SEM, Pre 5.84 ± 0.88, NS", "value": "5.37 ± 0.78", "unit": "µg creatinine"}, {"measurement": "Urinary E1", "setting": "[1]; Post: following two weeks of thyroxine (4.3 mcg/kg/d), mean ± SEM, Pre 7.36 ± 0.39, NS", "value": "7.30 ± 0.74", "unit": "µg creatinine"}, {"measurement": "Urinary Total estrogens", "setting": "[1]; Post: following two weeks of thyroxine (4.3 mcg/kg/d), mean ± SEM, Pre 20.93 ± 1.58, NS", "value": "23.24 ± 2.41. µg creatinine"}, {"measurement": "index [2OHE1]/[E3] change after thyroxine administration", "setting": "[1]; [7]", "value": "nearly doubled"}, {"measurement": "urinary 2-hydroxyestrone after thyroxine administration", "setting": "[1]; [7]", "value": "significantly greater"}, {"measurement": "[2OHE1]/[E3]", "setting": "[1]; urinary ratio, Post: following two weeks of thyroxine (4.3 mcg/kg/d), Pre 0.56 ± 0.09, P 0.01", "value": "1.05 ± 0.14"}]}, {"smiles": "CN/C(=N/CCSCc1nc[nH]c1C)NC#N", "note": "[Cimetidine]", "values": [{"measurement": "serum concentration of estradiol increased", "setting": "[2]", "value": "approximately 20%"}, {"measurement": "urinary excretion of 2-hydroxyestrone decreased", "setting": "[3]; 800 mg per dose twice daily oral for two weeks, nine normal male volunteers, P<0.0002", "value": "approximately 25%"}, {"measurement": "Urinary Excretion of Total estrogens", "setting": "[3]; After Cimetidine 800 mg orally twice a day for 14 days, sum of estrone, estradiol, estriol, 16α-hydroxyestrone, 2-hydroxyestrone, n=9, before 10.7 ± 1.1, P 0.02", "value": "9.9 ± 0.9 nmol/nmol of creatinine"}, {"measurement": "Urinary Excretion of 16α-Hydroxyestrone", "setting": "[3]; After Cimetidine 800 mg orally twice a day for 14 days, timed overnight urine, mean ± SEM, n=9, before 1.08 ± 0.11, NS", "value": "1.05 ± 0.08 nmol/nmol of creatinine"}, {"measurement": "Urinary Excretion of Estradiol", "setting": "[3]; After Cimetidine 800 mg orally twice a day for 14 days, timed overnight urine, mean ± SEM, n=9, before 1.28 ± 0.15, NS", "value": "1.25 ± 0.10 nmol/nmol of creatinine"}, {"measurement": "Urinary Excretion of 2-Hydroxyestrone", "setting": "[3]; After Cimetidine 800 mg orally twice a day for 14 days, timed overnight urine, mean ± SEM, n=9, before 1.71 ± 0.20, P 0.0002", "value": "1.27 ± 0.19 nmol/nmol of creatinine"}, {"measurement": "Urinary Excretion of Estrone", "setting": "[3]; After Cimetidine 800 mg orally twice a day for 14 days, timed overnight urine, mean ± SEM, n=9, before 3.80 ± 0.34, P 0.03", "value": "3.32 ± 0.26 nmol/nmol of creatinine"}, {"measurement": "ratio of 2-hydroxyestrone to estriol reduced", "setting": "[3]; after Cimetidine treatment", "value": "approximately 40%"}, {"measurement": "2-Hydroxyestrone/estriol", "setting": "[3]; urinary ratio After Cimetidine 800 mg orally twice a day for 14 days, mean ± SEM, n=9, before 0.74 ± 0.18, P 0.015", "value": "0.47 ± 0.10"}, {"measurement": "16α-hydroxylation of estradiol", "setting": "[4]", "value": "unaffected"}]}, {"smiles": "C[C@]12CC[C@@H]3c4cc(O)c(O)cc4CC[C@H]3[C@@H]1CC[C@@H]2O", "note": "[2-hydroxyestradiol]", "values": [{"measurement": "Cross-reactivities of the 2OHE1 antiserum", "setting": "2OHE1 antiserum", "value": 1.7, "unit": "%"}]}, {"smiles": "OCc1c[nH]c2ccccc12", "note": "[I3C, indole-3-carbinol]", "values": [{"measurement": "extent of estradiol 2-hydroxylation", "setting": "[5]", "value": "significantly increased"}, {"measurement": "[2OHE1]/[E3]", "setting": "[6]; Men Taking I3C (N=7), Post, Pre 1.06 ± 0.11, P <0.02", "value": "2.04 ± 0.35"}, {"measurement": "[E3]", "setting": "[6]; Men Taking I3C (N=7), Post, Pre 6.4 ± 1.8, P <0.006", "value": "4.2 ± 1.3"}, {"measurement": "[2OHE1]", "setting": "[6]; Men Taking I3C (N=7), Post, Pre 6.6 ± 2.3, NS", "value": "8.2 ± 3.5"}, {"measurement": "[E1]", "setting": "[6]; Men Taking I3C (N=7), Post, Pre 8.4 ± 1.8, NS", "value": "8.9 ± 2.3"}, {"measurement": "[E3]/[E1]", "setting": "[6]; Women (N=5), Post, Pre 1.04 ± 0.20, NS", "value": "0.74 ± 0.11"}, {"measurement": "[2OHE1]/[E1]", "setting": "[6]; Women (N=5), Post, Pre 1.15 ± 0.24, P <0.05", "value": "1.53 ± 0.20"}, {"measurement": "[2OHE1]/[E3]", "setting": "[6]; Women (N=5), Post, Pre 1.27 ± 0.30, P <0.005", "value": "2.35 ± 0.50"}, {"measurement": "induction of estradiol 2-hydroxylation", "setting": "[6]; conclusion from Tables 6A-C", "value": "potent inducers"}]}, {"smiles": "COc1cc2c(cc1O)CC[C@@H]1[C@@H]2CC[C@]2(C)C(=O)CC[C@@H]12", "note": "[2MeOE1, 2-methoxyestrone]", "values": [{"measurement": "Cross-reactivities of the 2OHE1 antiserum", "setting": "2OHE1 antiserum", "value": 0.11, "unit": "%"}]}]}
